Experiments:
[1] = system: Colon (SW-620) cancer cell line; experiment: SRB in vitro cytotoxicity assay, Colon SW-620; type: cell-based, human
Method: (§1) Single cell suspension of the tumor cells grown in tissue culture were made, cells counted and cell count adjusted to 1×10^5 to 5×10^5 Ninetysix (96) well plates were seeded with this cell suspension, each well receiving 100 μl of it. The plate was then be incubated at 37° C. temperature in CO2 incubator for 24 hours. Drugs were added at appropriate concentrations after 24-hour, incubation followed by further incubation for 48 hours. Experiment was terminated by gently layering the cells in the wells with 30% TCA and plates were kept in refrigerator for 1 hour following which they were washed thoroughly with tap water, dried attained with 0.4% SRB in 1% acetic aid and finally, the bound SRB eluted with 10 mM tris. Absorbance was read at 540 nm, in the microtitre-plate reader. Optical density of drug-treated cells was compared with that of control cells and cell inhibition was calculated as percent values. […]

[2] = system: CNS (SK-N-SH) cancer cell line; experiment: SRB in vitro cytotoxicity assay, CNS SK-N-SH; type: cell-based, human
Method: as §1

[3] = system: Colon (Colo-205) cancer cell line; experiment: SRB in vitro cytotoxicity assay, Colon Colo-205; type: cell-based, human
Method: as §1

[4] = system: Liver (HEP-2) cancer cell line; experiment: SRB in vitro cytotoxicity assay, Liver HEP-2; type: cell-based, human
Method: as §1

[5] = system: Neuroblastoma (IMR-32) cancer cell line; experiment: SRB in vitro cytotoxicity assay, Neuroblastoma IMR-32; type: cell-based, human
Method: as §1

[6] = system: Breast (MCF-7) cancer cell line; experiment: SRB in vitro cytotoxicity assay, Breast MCF-7; type: cell-based, human
Method: as §1

Topoisomerase-II = experiment: DNA Topoisomerase-II inhibition assay; type: biochemical; conditions: FIG. 3
Topoisomerase-I = target: T1, Topoisomerase-I (Homo sapiens, UniProt P11387); experiment: Topoisomerase-I relaxation assay; type: biochemical; conditions: at 100 μM (FIG. 2)
T1 sequence (P11387 1-765): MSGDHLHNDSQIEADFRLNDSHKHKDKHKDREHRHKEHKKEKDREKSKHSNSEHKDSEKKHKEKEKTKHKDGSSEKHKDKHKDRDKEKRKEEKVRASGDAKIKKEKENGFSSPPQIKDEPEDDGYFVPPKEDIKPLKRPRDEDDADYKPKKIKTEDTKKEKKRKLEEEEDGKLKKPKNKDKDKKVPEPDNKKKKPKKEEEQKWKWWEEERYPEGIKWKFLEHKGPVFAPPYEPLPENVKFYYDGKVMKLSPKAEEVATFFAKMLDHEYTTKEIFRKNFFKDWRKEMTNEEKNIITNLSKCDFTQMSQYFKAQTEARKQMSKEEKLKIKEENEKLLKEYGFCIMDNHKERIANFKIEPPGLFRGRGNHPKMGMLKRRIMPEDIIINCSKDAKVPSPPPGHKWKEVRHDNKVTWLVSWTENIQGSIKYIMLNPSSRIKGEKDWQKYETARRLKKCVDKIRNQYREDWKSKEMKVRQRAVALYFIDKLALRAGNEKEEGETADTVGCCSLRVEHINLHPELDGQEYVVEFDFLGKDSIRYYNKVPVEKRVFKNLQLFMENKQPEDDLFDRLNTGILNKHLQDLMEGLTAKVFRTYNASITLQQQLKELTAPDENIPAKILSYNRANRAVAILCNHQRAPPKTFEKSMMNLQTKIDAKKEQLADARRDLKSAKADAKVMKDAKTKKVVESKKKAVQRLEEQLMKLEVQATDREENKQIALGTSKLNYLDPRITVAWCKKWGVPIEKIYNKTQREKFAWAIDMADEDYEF
Method: Apart from this, some of these analogues were evaluated for Topoisomerase-I relaxation, Topoisomerase-II inhibition, DNA laddering assay and DNA cell cycle analysis. Compounds 3c, 4c, 3d and 4d were analyzed for topoisomerase-I assay at 100 μM (FIG. 2) only compound 3d was found active and rest were not active. Compounds 3d, 4d and 4c were analyzed for topoisomerase inhibition assay.
Reaction was assembled in micro centrifuge tube that contains super coiled DNA 250 ng/μl & Topoisomerase-I (4 units) in assay buffer (10 mM Tris-HCl, pH 7.9, 0.15 M NaCl, 0.1% BSA, and 5.0 mM (beta)-mercaptoethanol). In each reaction 2 μl sample was added then volume was made up to 20 μl with water and then incubated at 37° C. Reaction was terminated by addition of 2 μl of 10% SDS. Each sample tube was treated with proteinase K and extracted once with chloroform: isoamyl alcohol. Products were resolved by 0.8% agarose gel electrophoresis in TAE buffer (40 mM tris-acetate, pH 8.0, and 1 mM EDTA) and stained with 0.5 μg/ml ethedium bromide (EtBr).

[7] = concentration 1 × 10^−5 (μM/mL)
[8] = concentration 1 × 10^−6 (μM/mL), control drug

Row | SMILES | Growth Inhibition(%) Colon SW-620 [1, 7] | Growth Inhibition(%) CNS SK-N-SH [2, 7] | Growth Inhibition(%) Colon Colo-205 [3, 7] | Growth Inhibition(%) Liver HEP-2 [4, 7] | Growth Inhibition(%) Neuroblastma IMR-32 [5, 7] | Growth Inhibition(%) Breast MCF-7 [6, 7] | activity in topoisomerase inhibition assay (Topoisomerase-II) (Topoisomerase-II) | activity in topoisomerase-I assay (Topoisomerase-I) | Growth Inhibition(%) Colon SW-620 [1, 8] | Growth Inhibition(%) CNS SK-N-SH [2, 8] | Growth Inhibition(%) Colon Colo-205 [3, 8] | Growth Inhibition(%) Liver HEP-2 [4, 8] | Growth Inhibition(%) Neuroblastma IMR-32 [5, 8] | Growth Inhibition(%) Breast MCF-7 [6, 8]
1 | COc1cc([C@@H]2c3cc4c(cc3[C@@H](Nc3ccc(C(=O)c5ccc(F)cc5)cc3)[C@@H]3COC(=O)[C@H]23)OCO4)cc(OC)c1OC [Compound 3e, 4β-[4″-(4″-Fluorobenzoyl)anilino]-4-desoxypodophyllotoxin] | 10% | 34% | 68% | 0% | 0% | 30% |  |  |  |  |  |  |  | 
2 | COc1cc([C@@H]2c3cc4c(cc3[C@@H](Nc3ccc(C(=O)c5ccc(F)cc5)cc3)[C@@H]3COC(=O)[C@H]23)OCO4)cc(OC)c1O [Compound 4e, 4′-O-Demethyl-4β-[4″-(4″-fluorobenzoyl)anilino]-4-desoxypodophyllotoxin] | 42% | 91% | 77% | 51% | 11% | 39% |  |  |  |  |  |  |  | 
3 | COc1cc([C@@H]2c3cc4c(cc3[C@@H](Nc3cccc5cc6ccccc6cc35)[C@@H]3COC(=O)[C@H]23)OCO4)cc(OC)c1OC [Compound 3a, 4β-(1″-Anthrylamino)-4-desoxypodophyllotoxin] | 25% | 65% | 55% | 46% | 16% | 5% |  |  |  |  |  |  |  | 
4 | COc1cc([C@@H]2c3cc4c(cc3[C@@H](Nc3cccc5c3Cc3ccccc3-5)[C@@H]3COC(=O)[C@H]23)OCO4)cc(OC)c1O [Compound 4b, 4′-O-Demethyl-4β-(1″-fluorenylamino)-4-desoxypodophyllotoxin] | 15% | 50% | 55% | 0% | 0% | 39% |  |  |  |  |  |  |  | 
5 | COc1cc([C@@H]2c3cc4c(cc3[C@@H](Nc3cc5c6ccccc6ccc5c5ccccc35)[C@@H]3COC(=O)[C@H]23)OCO4)cc(OC)c1O [Compound 4d, 4′-O-Demethyl-4β-(6″-chrycenylamino)-4-desoxypodophyllotoxin] | 17% | 58% | 58% | 76% | 0% | 0% | None of the compounds are active | not active |  |  |  |  |  | 
6 | COc1cc([C@@H]2c3cc4c(cc3[C@@H](Nc3cccc5c3Cc3ccccc3-5)[C@@H]3COC(=O)[C@H]23)OCO4)cc(OC)c1OC [Compound 3b, 4β-(1″-Fluorenylamino)-4-desoxypodophyllotoxin] | 11% | 44% | 49% | 77% | 0% | 4% |  |  |  |  |  |  |  | 
7 | COc1cc([C@@H]2c3cc4c(cc3[C@@H](Nc3ccc5ccc6cccc7ccc3c5c67)[C@@H]3COC(=O)[C@H]23)OCO4)cc(OC)c1O [Compound 4c, 4′-O-Demethyl-4β-(1″-pyrenylamino)-4-desoxypodophyllotoxin] | 7% | 40% | 40% | 39% | 0% | 0% | None of the compounds are active | not active |  |  |  |  |  | 
8 | COc1cccc2c1C(=O)c1c(O)c3c(c(O)c1C2=O)C[C@@](O)(C(=O)CO)C[C@@H]3O[C@H]1C[C@H](N)[C@H](O)[C@H](C)O1 [ADR, Adriamycin, reference compound] |  |  |  |  |  |  |  |  | 21% | 36% | 18% | 23% | 0% | 23%
9 | COc1cc([C@@H]2c3cc4c(cc3[C@@H](Nc3ccc(C(=O)c5ccc(N(CCCl)CCCl)cc5)cc3)[C@@H]3COC(=O)[C@H]23)OCO4)cc(OC)c1OC [Compound 3f, 4β-(4″-{4″-[Di(2″-chloroethyl)amino]benzoyl}anilino)-4-desoxypodophyllotoxin] | 15% | 83% | 74% | 45% | 0% | 40% |  |  |  |  |  |  |  | 
10 | COc1cc([C@@H]2c3cc4c(cc3[C@@H](Nc3cccc5cc6ccccc6cc35)[C@@H]3COC(=O)[C@H]23)OCO4)cc(OC)c1O [Compound 4a, 4′-O-Demethyl-4β-(1″-anthrylamino)-4-desoxypodophyllotoxin] | 22% | 38% | 39% | 58% | 0% | 0% |  |  |  |  |  |  |  | 
11 | COc1cc([C@@H]2c3cc4c(cc3[C@@H](Nc3ccc5ccc6cccc7ccc3c5c67)[C@@H]3COC(=O)[C@H]23)OCO4)cc(OC)c1OC [Compound 3c, 4β-(1″-Pyrenylamino)-4-desoxypodophyllotoxin] | 29% | 59% | 64% | 66% | 0% | 0% |  | not active |  |  |  |  |  | 

Reference: patent US8354547B2, “4β-amino podophyllotoxin congeners as anti tumour antibiotics a process for the preparation thereof” (Council of Scientific & Industrial Research, priority 2008, dated 2013)
